Among the data in US20250179059A1 (The Regents of the University of California, priority 2021, published 2025) are GI50 and IC50 values, retold here.

The subject of assay [1] is human SKM-1 acute myeloid leukemia cells. Briefly: SKM-1 antiproliferation cell-based assay (ATPlite). The note with it: Homo sapiens. A digest of the protocol: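 Log-phase cells in RPMI 1640/15% FBS were seeded at 34722 cells/mL and exposed for 4 days to nine-concentration DMSO serial dilutions in triplicate. Viability was read as ATP luminescence (ATPlite 1step), and IC50 values came from variable-slope non-linear regression.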
In general terms: Cellular ATP, detected with luciferase, serves as a proxy for viable cell number.

In assay [2] the target is T1, human BRD4 bromodomain II (Homo sapiens, UniProt O60885).
T1 construct: human BRD4 bromodomain II [based on Genbank NM_058243, residues 349-460]; host or cells: E. coli
Briefly: Bromodomain binding assay (AlphaScreen), BRD4 BDII. A digest of the protocol: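 Read-out is AlphaScreen signal (ex 680 nm, em 520-620 nm) from streptavidin donor beads on a biotinylated acetylated histone H4 (aa 1-21) peptide and nickel acceptor beads on the His6-tagged bromodomain. IC50 values come from curve fits of percentage peptide binding against compound concentration.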
For orientation: In Alpha technology, singlet oxygen from a donor bead excites a nearby acceptor bead.

[3] abbreviates: SKM-1, 96 h, SKM-1 antiproliferation assay, 4 days, Table C2.
Setting [4] is: AlphaScreen assay, Table C2, read-out: BRD4 BDII IC50.
Setting [5] is: SKM-1, SKM-1 antiproliferation assay.
The mark [6] stands for this setting: BRD4 BDII AlphaScreen assay, read-out: BRD4 BD2 IC50.

Usually GI50 stands for the concentration giving 50% growth inhibition. For orientation: IC50 means the concentration that gives 50% inhibition.

The structures appear in SMILES notation. Where two headings read alike, the source gives them in different places.

Compound `Cc1ncc(-c2cc(F)cc(-c3ccc(-n4ccn(C)c4=O)c(Cl)c3)c2O)cc1N1CCCN(C(C)(C)C)CC1` [Example 844, 1-(3′-(5-(4-(tert-butyl)-1,4-diazepan-1-yl)-6-methylpyridin-3-yl)-3-chloro-5′-fluoro-2′-hydroxy-[1,1′-biphenyl]-4-yl)-3-methyl-1H-imidazol-2(3H)-one] showed a 50% growth inhibitory concentration (GI50) in assay [1] (setting [3]) of 0.3 to 30 nM. Further, the 50% inhibitory concentration (IC50) in assay [2] (setting [4]) was in the range of 1 to 10 nM.

In assay [1] (setting [3]), `CN1CCC12CCN(c1cc(-c3cc(F)cc(-c4ccc(-n5ccn(C)c5=O)c(Cl)c4)c3O)ccn1)C2` (stereo not shown) [Example 642, 1-(3-chloro-5′-fluoro-2′-hydroxy-3′-(2-(1-methyl-1,6-diazaspiro[3.4]octan-6-yl)pyridin-4-yl)-[1,1′-biphenyl]-4-yl)-3-methyl-1H-imidazol-2(3H)-one] had a 50% growth inhibitory concentration (GI50) of 0.3 to 30 nM. Also, the IC50 in assay [2] (setting [4]) is 0.01 to 1 nM.

As to `Cc1ccc(-c2cc(F)cc(-c3ccc(-n4ccn(C)c4=O)c(Cl)c3)c2O)cc1N1CC(C)(O)C1` [Example 845, 1-(3-chloro-5′-fluoro-2′-hydroxy-3″-(3-hydroxy-3-methylazetidin-1-yl)-4″-methyl-[1,1′:3′,1″-terphenyl]-4-yl)-3-methyl-1H-imidazol-2(3H)-one], in assay [1] (setting [3]), the concentration for 50% growth inhibition (GI50) was in the range of 30 to 300 nM. In addition, the 50% inhibitory concentration (IC50) in assay [2] (setting [4]) lay in the range of 1 to 10 nM.

In the case of `COCC(C)(C)N1CCN(c2cc(-c3cc(F)cc(-c4ccc(-n5ccn(C)c5=O)c(Cl)c4)c3O)cnc2OC)CC1` [Example 850, 1-(3-Chloro-5′-fluoro-2′-hydroxy-3′-(6-methoxy-5-(4-(1-methoxy-2-methylpropan-2-yl)piperazin-1-yl)pyridin-3-yl)-[1,1′-biphenyl]-4-yl)-3-methyl-1H-imidazol-2(3H)-one], the GI50 in assay [1] (setting [5]) lay within 0.3 to 30 nM. The IC50 in assay [2] (setting [6]) is 1 to 10 nM.

The compound `Cn1ccn(-c2ccc(-c3cc(F)cc(-c4ccnc(N5CCC(C)(N6CCCC6)C5)c4)c3O)cc2Cl)c1=O` (stereo not shown) [Example 822, 1-(3-chloro-5′-fluoro-2′-hydroxy-3′-(2-(3′-methyl-[1,3′-bipyrrolidin]-1′-yl)pyridin-4-yl)-[1,1′-biphenyl]-4-yl)-3-methyl-1H-imidazol-2(3H)-one] yielded a GI50 in assay [1] (setting [3]) of 0.3 to 30 nM. Moreover, the IC50 in assay [2] (setting [4]) is 1 to 10 nM.

Turning to `Cc1cc(-c2cc(-c3cn[nH]c3)cc(N3CCNCC3)c2)c(O)c(-c2ccc(-n3ccn(C)c3=O)c(Cl)c2)c1` [Example 570], in assay [1] (setting [3]), the 50% growth inhibitory concentration (GI50) fell in the range of 0.3 to 30 nM. Besides, the concentration for half-maximal inhibition (IC50) in assay [2] (setting [4]) lay in the range of 1 to 10 nM.

With `CN1CCN(c2c(Cl)cc(-c3cc(F)cc(-c4ccnc(N5CCNCC5)c4)c3O)cc2C#N)C1=O` [Example 426, 5-chloro-5′-fluoro-2′-hydroxy-4-(3-methyl-2-oxoimidazolidin-1-yl)-3′-(2-(piperazin-1-yl)pyridin-4-yl)-[1,1′-biphenyl]-3-carbonitrile], the GI50 in assay [1] (setting [3]) is at least 3000 nM. For the same compound, in assay [2] (setting [4]), the IC50 is over 100 nM.

Turning to `Cn1ccn(-c2ccc(-c3cc(F)cc(-c4cc(Cl)c(F)c(N5CCN(C(C)(C)C)CC5)c4)c3O)cc2Cl)c1=O` [Example 904], the GI50 in assay [1] (setting [5]) lay within 30 to 300 nM. In assay [2] (setting [6]), the IC50 is 0.01 to 1 nM.

With `Cc1cc(-c2cc(C)nc(N3CCNCC3)c2)c(O)c(-c2ccc(N3CCN(C)C3=O)c(Cl)c2)c1` [Example 337, 1-(3-chloro-2′-hydroxy-5′-methyl-3′-(2-methyl-6-(piperazin-1-yl)pyridin-4-yl)-[1,1′-biphenyl]-4-yl)-3-methylimidazolidin-2-one], the GI50 in assay [1] (setting [3]) was in the range of 30 to 300 nM. In addition, in assay [2] (setting [4]), the half-inhibitory concentration (IC50) is 1 to 10 nM.

As for `CN(C)c1ncc(-c2nccc(-c3ccc(-n4ccn(C)c4=O)c(Cl)c3)c2O)cc1N1CCN(C(C)(C)C)CC1` [Example 988, 1-(4-(5′-(4-(tert-butyl)piperazin-1-yl)-6′-(dimethylamino)-3-hydroxy-[2,3′-bipyridin]-4-yl)-2-chlorophenyl)-3-methyl-1H-imidazol-2(3H)-one], in assay [1] (setting [5]), the 50% growth inhibitory concentration (GI50) was 0.3 to 30 nM. Further, the IC50 in assay [2] (setting [6]) was 1 to 10 nM.

Compound `Cn1ccn(-c2ccc(-c3cc(F)cc(-c4ccnc(N5CCN[C@H](CC(N)=O)C5)c4)c3O)cc2Cl)c1=O` [Example 644, (R)-2-(4-(4-(3′-chloro-5-fluoro-2-hydroxy-4′-(3-methyl-2-oxo-2,3-dihydro-1H-imidazol-1-yl)-[1,1′-biphenyl]-3-yl)pyridin-2-yl)piperazin-2-yl)acetamide] registered a 50% growth inhibitory concentration (GI50) in assay [1] (setting [3]) of 0.3 to 30 nM. Moreover, the half-maximal inhibitory concentration (IC50) in assay [2] (setting [4]) fell in the range of 0.01 to 1 nM.

Compound `Cc1ccc(-c2cc(F)cc(-c3ccc(-n4ccn(C)c4=O)c(Cl)c3)c2O)cc1N1CC(O)(CO)C1` [Example 841, 1-(3-chloro-5′-fluoro-2′-hydroxy-3″-(3-hydroxy-3-(hydroxymethyl)azetidin-1-yl)-4″-methyl-[1,1′:3′,1″-terphenyl]-4-yl)-3-methyl-1H-imidazol-2(3H)-one] came in with a 50% growth inhibitory concentration (GI50) in assay [1] (setting [3]) of 30 to 300 nM. Also, in assay [2] (setting [4]), the IC50 was 1 to 10 nM.

`C[C@H]1CCCN(c2cc(-c3cc(F)cc(-c4ccc(-n5ccn(C)c5=O)c(Cl)c4)c3O)cc3[nH]ncc23)C1` [Example 596, (S)-1-(3-chloro-5′-fluoro-2′-hydroxy-3′-(4-(3-methylpiperidin-1-yl)-1H-indazol-6-yl)-[1,1′-biphenyl]-4-yl)-3-methyl-1H-imidazol-2(3H)-one] gave a GI50 in assay [1] (setting [3]) of 300 to 3000 nM. Also, the IC50 in assay [2] (setting [4]) was in the range of 10 to 100 nM.

In assay [1] (setting [3]), `CC(=O)Nc1ccc(-c2cccc(-c3ccnc(N4CC[C@H](N)C4)c3)c2O)cc1F` [Example 248, (S)-N-(3′-(2-(3-aminopyrrolidin-1-yl)pyridin-4-yl)-3-fluoro-2′-hydroxy-[1,1′-biphenyl]-4-yl)acetamide] yielded a concentration for 50% growth inhibition (GI50) of 30 to 300 nM. Further, the IC50 in assay [2] (setting [4]) was in the range of 1 to 10 nM.

`Cn1ccn(-c2c(Cl)cc(-c3cc(F)cc(-c4ccnc(N5CCNCC5)c4)c3O)cc2C#N)c1=O` [Example 448, 5-chloro-5′-fluoro-2′-hydroxy-4-(3-methyl-2-oxo-2,3-dihydro-1H-imidazol-1-yl)-3′-(2-(piperazin-1-yl)pyridin-4-yl)-[1,1′-biphenyl]-3-carbonitrile] showed a 50% growth inhibitory concentration (GI50) in assay [1] (setting [3]) of 300 to 3000 nM. The IC50 in assay [2] (setting [4]) was 10 to 100 nM.

As for `C[C@@H]1CN(c2cc(-c3cc(F)cc(-c4ccc(-n5ccn(C)c5=O)c(Cl)c4)c3O)cc3nccnc23)CCN1` [Example 549, (R)-1-(3-chloro-5′-fluoro-2′-hydroxy-3′-(8-(3-methylpiperazin-1-yl)quinoxalin-6-yl)-[1,1′-biphenyl]-4-yl)-3-methyl-1H-imidazol-2(3H)-one], the GI50 in assay [1] (setting [3]) lay within 0.3 to 30 nM. Besides, the 50% inhibitory concentration (IC50) in assay [2] (setting [4]) lay in the range of 1 to 10 nM.

In the case of `CN1CCN(c2ccc(-c3cccc(-c4ccnc(N5CCNCC5)c4)c3O)cc2F)C1=O` [Example 240, 1-(3-fluoro-2′-hydroxy-3′-(2-(piperazin-1-yl)pyridin-4-yl)-[1,1′-biphenyl]-4-yl)-3-methylimidazolidin-2-one], the 50% growth inhibitory concentration (GI50) in assay [1] (setting [3]) fell in the range of 30 to 300 nM. Besides, the IC50 in assay [2] (setting [4]) is 1 to 10 nM.

For `Cn1ccn(-c2ccc(-c3cc(F)cc(-c4ccnc(N5CCN(CCCF)CC5)c4)c3O)cc2Cl)c1=O` [Example 527, 1-(3-chloro-5′-fluoro-3′-(2-(4-(3-fluoropropyl)piperazin-1-yl)pyridin-4-yl)-2′-hydroxy-[1,1′-biphenyl]-4-yl)-3-methyl-1H-imidazol-2(3H)-one], the GI50 in assay [1] (setting [3]) is 0.3 to 30 nM. Also, in assay [2] (setting [4]), the half-inhibitory concentration (IC50) is 0.01 to 1 nM.

Turning to `Cn1ccn(-c2ccc(-c3cc(F)cc(-c4ccnc(N5CC[C@@H](O)[C@H](N)C5)c4)c3O)cc2Cl)c1=O` [Example 487, 1-(3′-(2-((3R,4R)-3-amino-4-hydroxypiperidin-1-yl)pyridin-4-yl)-3-chloro-5′-fluoro-2′-hydroxy-[1,1′-biphenyl]-4-yl)-3-methyl-1H-imidazol-2(3H)-one], the concentration for 50% growth inhibition (GI50) in assay [1] (setting [3]) fell in the range of 30 to 300 nM. In addition, the IC50 in assay [2] (setting [4]) was in the range of 1 to 10 nM.

With `Cn1ccn(-c2ccc(-c3cc(F)cc(-c4cc(N5CC[C@@](C)(O)C5)n(C)c(=O)c4)c3O)cc2Cl)c1=O` [Example 777, (R)-4-(3′-chloro-5-fluoro-2-hydroxy-4′-(3-methyl-2-oxo-2,3-dihydro-1H-imidazol-1-yl)-[1,1′-biphenyl]-3-yl)-6-(3-hydroxy-3-methylpyrrolidin-1-yl)-1-methylpyridin-2(1H)-one], in assay [1] (setting [3]), the GI50 fell in the range of 0.3 to 30 nM. Further, the half-inhibitory concentration (IC50) in assay [2] (setting [4]) fell in the range of 0.01 to 1 nM.

As for `CN1CCCC12CCCN(c1cc(-c3cc(F)cc(-c4ccc(-n5ccn(C)c5=O)c(Cl)c4)c3O)ccn1)C2` (stereo not shown) [Example 695, 1-(3-chloro-5′-fluoro-2′-hydroxy-3′-(2-(1-methyl-1,7-diazaspiro[4.5]decan-7-yl)pyridin-4-yl)-[1,1′-biphenyl]-4-yl)-3-methyl-1H-imidazol-2(3H)-one], in assay [1] (setting [3]), the GI50 is 0.3 to 30 nM. The IC50 in assay [2] (setting [4]) was in the range of 0.01 to 1 nM.

In turn, `Cc1cc(-c2ccc(-n3ccn(C)c3=O)c(Cl)c2)c(O)c(-c2ccnc(N3CCN(C(C)(C)C)CC3)c2)n1` [Example 998, 1-(4-(2′-(4-(tert-butyl)piperazin-1-yl)-3-hydroxy-6-methyl-[2,4′-bipyridin]-4-yl)-2-chlorophenyl)-3-methyl-1H-imidazol-2(3H)-one] returned a GI50 in assay [1] (setting [5]) of 0.3 to 30 nM. Further, the half-inhibitory concentration (IC50) in assay [2] (setting [6]) lay within 1 to 10 nM.

The compound `CN1CCCC12CCN(c1cc(-c3cc(F)cc(-c4ccc(-n5ccn(C)c5=O)c(Cl)c4)c3O)cn(C)c1=O)C2` (stereo not shown) [Example 696, 5-(3′-chloro-5-fluoro-2-hydroxy-4′-(3-methyl-2-oxo-2,3-dihydro-1H-imidazol-1-yl)-[1,1′-biphenyl]-3-yl)-1-methyl-3-(1-methyl-1,7-diazaspiro[4.4]nonan-7-yl)pyridin-2(1H)-one] returned a GI50 in assay [1] (setting [3]) of 0.3 to 30 nM. Moreover, the IC50 in assay [2] (setting [4]) fell in the range of 0.01 to 1 nM.
